Assay results as given in patent US6409810B1, “Water-soluble trisazo compounds, aqueous ink composition and colored article” (Nippon Kayaku Kabushiki Kaisha, priority 1997, dated 2002).

Key:
Type in all cases: physicochemical
[1] = Test for resistance to light of the recorded images (carbon arc fade meter, Blue Scale JIS L-0841); settings: 20 hours carbon arc fade meter; for light fastness (rank) ink jet paper A: ink jet print on ink jet paper A (Color BJ Paper LC 101, Canon); for light fastness (rank) ink jet paper B: ink jet print on ink jet paper B (coated paper STX73 A4, Sharp); for light fastness (rank) plain paper: ink jet print on plain paper (Canon TLB5A4S)
Procedure: (§1) A liquid having the following formulation was prepared and passed through a 0.45 μm membrane filter to obtain an aqueous ink composition for ink jet printers.
(§2) An ink jet recording was conducted on three different papers, i.e. plain papers (Canon printer paper A4 (TLB5A4S)), ink jet papers A (Color BJ Paper LC 101; ex. Canon) and ink jet papers B (coated papers for ink jet printer STX73 A4; ex. Sharp) by means of an ink jet printer (trade name NOVA JET III; ex. ENCAD). The thus-recorded images were tested with respect to the resistances to light and water and a color rendering property.
The recorded images were irradiated with light for 20 hours by means of a carbon arc fade meter (ex. SUGA Shikenkisha). Light fastness was judged according to the Blue Scale for light resistance standard as defined in JIS L-0841.

[2] = Color rendering property (hue change under tungsten light versus standard light source, visual); set-up: key: ∘: Change in hue was small.; Δ: Change in hue was somewhat large.; X: Change in hue was large; settings: hue change under tungsten light compared with standard light source
Procedure: as §1, §2
Discoloration was judged by the visual examination by comparing the hue change under the tungsten light with that under the standard light source.

[3] = Test for resistance to water of the recorded images (immersion in water, visual examination of dropout); settings: immersed in water 2 minutes with mild stirring, dried; for water fastness ink jet paper A: ink jet print on ink jet paper A
Procedure: as §1, §2
Test specimen was immersed in water contained in a beaker with mild stirring for 2 minutes and dried. Amount of the compound was observed by the visual examination before and after the immersion, and dropout of the compound was judged.

Row | Structure (SMILES) | light fastness (rank) ink jet paper A [1] | light fastness (rank) ink jet paper B [1] | light fastness (rank) plain paper [1] | color rendering property [2] | water fastness ink jet paper A [3] | water fastness ink jet paper B ([3]; ink jet print on ink jet paper B) | water fastness plain paper ([3]; ink jet print on plain paper)
1 | COCCOc1cc(N=Nc2cc(S(=O)(=O)O)cc3cc(S(=O)(=O)O)cc(O)c23)c(NC(C)=O)cc1N=Nc1c(S(=O)(=O)O)cc2ccc(N=Nc3ccc(N)cc3N)cc2c1O [compound 0019] | 5 rank | 5 rank | 5 rank | ◯ | ◯ | ◯ | Δ˜◯
2 | Nc1cc2c(O)c(N=Nc3ccc(N=Nc4ccc(S(=O)(=O)[O-])cc4)c4ccc(S(=O)(=O)[O-])cc34)c(S(=O)(=O)[O-])cc2cc1S(=O)(=O)[O-].[Na+].[Na+].[Na+].[Na+] [compound 1, C.I. Food Black 2, reference compound] | 3 rank | 4-5 rank | 4-5 rank | Δ | ◯ | – | –
